Results from patent publication US20120245137A1 (Zalicus Pharmaceuticals Ltd., priority 2009, published 2012).
pIC50: −log10 of the molar value.

Tests used:
Assay type in all cases: cell-based
[1] = biological target: N-type calcium channel subunits (α1B, α2δ, and β3a) (Homo sapiens, UniProt Q00975); test: Block of Cav2.2 channel, whole cell voltage clamp, manual and PatchXpress; settings: Table 5; table follows Assay Example 3 (whole cell voltage clamp / PatchXpress); assay not given
In short: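 Percent block taken as current amplitude ratio with versus without compound, applied in rising doses; IC50 fitted where one cell received multiple doses. Protocol: 50 ms pulses to +20 mV at 0.067 Hz from […] or −90 mV holding; P/n leak subtraction, no junction-potential correction; manual and PatchXpress recordings.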

[2] = biological target: human α1H T-type channels (Homo sapiens, UniProt O95180); test: T-type calcium channel block, whole cell patch clamp, α1H; settings: HEK cells stably expressing human α1H; mainly non-inactivated protocol; values above 10,000 nM represented as 10000
In short: (§1)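 Whole-cell voltage clamp on stably transfected HEK 293 lines carrying human α1H or α1G. Two voltage protocols used: non-inactivated pre-pulse for resting block, inactivated for voltage-dependent block; test agents perfused locally in external solution (0.1-0.01% DMSO) following ~10 min rest.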

[3] = biological target: human α1G T-type channels (Homo sapiens, UniProt O43497); test: T-type calcium channel block, whole cell patch clamp, α1G; settings: HEK cells stably expressing human α1G; mainly non-inactivated protocol; values above 10,000 nM represented as 10000
In short: as §1

Sequence of human α1G T-type channels (O43497 whole entry): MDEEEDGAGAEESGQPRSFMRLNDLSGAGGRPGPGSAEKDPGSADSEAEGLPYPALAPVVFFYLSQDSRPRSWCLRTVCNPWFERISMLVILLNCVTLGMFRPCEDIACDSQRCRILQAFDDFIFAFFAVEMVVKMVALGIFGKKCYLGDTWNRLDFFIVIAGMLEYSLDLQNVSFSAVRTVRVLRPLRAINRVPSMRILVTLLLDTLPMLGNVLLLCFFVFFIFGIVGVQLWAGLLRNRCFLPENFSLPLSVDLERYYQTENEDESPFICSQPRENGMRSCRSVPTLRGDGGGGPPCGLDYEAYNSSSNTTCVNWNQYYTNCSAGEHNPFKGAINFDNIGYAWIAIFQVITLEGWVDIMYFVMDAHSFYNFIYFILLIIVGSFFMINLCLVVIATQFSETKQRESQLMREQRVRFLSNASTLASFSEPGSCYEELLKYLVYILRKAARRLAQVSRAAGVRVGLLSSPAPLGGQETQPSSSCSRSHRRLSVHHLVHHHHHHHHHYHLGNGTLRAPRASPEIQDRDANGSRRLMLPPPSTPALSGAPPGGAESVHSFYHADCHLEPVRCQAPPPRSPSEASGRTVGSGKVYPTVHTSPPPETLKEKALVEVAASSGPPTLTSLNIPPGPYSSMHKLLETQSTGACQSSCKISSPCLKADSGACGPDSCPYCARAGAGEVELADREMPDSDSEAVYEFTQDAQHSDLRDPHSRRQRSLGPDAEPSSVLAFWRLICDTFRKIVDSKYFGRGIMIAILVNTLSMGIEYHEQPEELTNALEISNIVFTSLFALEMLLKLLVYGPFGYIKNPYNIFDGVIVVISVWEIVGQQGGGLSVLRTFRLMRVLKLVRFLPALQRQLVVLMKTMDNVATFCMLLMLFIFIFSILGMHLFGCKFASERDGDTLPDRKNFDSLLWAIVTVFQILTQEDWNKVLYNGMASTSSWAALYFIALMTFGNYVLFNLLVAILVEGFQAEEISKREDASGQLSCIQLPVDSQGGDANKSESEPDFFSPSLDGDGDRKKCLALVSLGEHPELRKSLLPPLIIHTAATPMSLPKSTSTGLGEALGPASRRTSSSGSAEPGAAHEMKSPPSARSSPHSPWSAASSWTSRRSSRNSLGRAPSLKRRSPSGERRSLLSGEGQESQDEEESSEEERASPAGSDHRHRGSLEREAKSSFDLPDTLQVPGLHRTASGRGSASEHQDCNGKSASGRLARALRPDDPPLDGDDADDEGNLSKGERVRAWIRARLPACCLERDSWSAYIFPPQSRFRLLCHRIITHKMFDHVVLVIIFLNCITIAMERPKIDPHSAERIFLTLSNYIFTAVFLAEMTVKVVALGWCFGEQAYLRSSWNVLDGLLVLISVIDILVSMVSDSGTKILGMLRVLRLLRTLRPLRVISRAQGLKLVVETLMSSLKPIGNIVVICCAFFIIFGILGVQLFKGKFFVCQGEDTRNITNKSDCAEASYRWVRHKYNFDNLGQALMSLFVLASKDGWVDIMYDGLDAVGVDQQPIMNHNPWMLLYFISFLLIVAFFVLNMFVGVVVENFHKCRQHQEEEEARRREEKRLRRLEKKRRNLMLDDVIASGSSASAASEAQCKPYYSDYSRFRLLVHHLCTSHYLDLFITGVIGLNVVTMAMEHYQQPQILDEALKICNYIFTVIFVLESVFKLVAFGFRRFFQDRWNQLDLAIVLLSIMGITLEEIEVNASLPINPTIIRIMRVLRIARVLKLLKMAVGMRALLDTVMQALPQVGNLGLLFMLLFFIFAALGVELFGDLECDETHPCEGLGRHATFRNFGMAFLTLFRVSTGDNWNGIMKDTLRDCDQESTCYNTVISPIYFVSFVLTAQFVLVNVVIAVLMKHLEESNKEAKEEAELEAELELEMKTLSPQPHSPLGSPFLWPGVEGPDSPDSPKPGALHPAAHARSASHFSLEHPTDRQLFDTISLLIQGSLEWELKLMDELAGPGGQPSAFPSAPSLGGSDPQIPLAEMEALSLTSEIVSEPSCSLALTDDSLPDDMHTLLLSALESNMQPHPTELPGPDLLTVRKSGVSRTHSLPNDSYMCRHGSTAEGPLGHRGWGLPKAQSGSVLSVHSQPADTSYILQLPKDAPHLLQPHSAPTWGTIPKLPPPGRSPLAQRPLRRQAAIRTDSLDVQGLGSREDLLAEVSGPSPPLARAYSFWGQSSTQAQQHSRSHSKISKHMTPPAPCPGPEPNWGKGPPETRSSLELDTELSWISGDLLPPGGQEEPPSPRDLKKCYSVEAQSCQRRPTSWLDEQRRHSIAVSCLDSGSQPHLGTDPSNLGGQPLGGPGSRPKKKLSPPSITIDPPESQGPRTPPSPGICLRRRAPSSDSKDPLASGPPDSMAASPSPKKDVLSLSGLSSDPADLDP
Sequence of human α1H T-type channels (O95180 whole entry, the tested form may be a part): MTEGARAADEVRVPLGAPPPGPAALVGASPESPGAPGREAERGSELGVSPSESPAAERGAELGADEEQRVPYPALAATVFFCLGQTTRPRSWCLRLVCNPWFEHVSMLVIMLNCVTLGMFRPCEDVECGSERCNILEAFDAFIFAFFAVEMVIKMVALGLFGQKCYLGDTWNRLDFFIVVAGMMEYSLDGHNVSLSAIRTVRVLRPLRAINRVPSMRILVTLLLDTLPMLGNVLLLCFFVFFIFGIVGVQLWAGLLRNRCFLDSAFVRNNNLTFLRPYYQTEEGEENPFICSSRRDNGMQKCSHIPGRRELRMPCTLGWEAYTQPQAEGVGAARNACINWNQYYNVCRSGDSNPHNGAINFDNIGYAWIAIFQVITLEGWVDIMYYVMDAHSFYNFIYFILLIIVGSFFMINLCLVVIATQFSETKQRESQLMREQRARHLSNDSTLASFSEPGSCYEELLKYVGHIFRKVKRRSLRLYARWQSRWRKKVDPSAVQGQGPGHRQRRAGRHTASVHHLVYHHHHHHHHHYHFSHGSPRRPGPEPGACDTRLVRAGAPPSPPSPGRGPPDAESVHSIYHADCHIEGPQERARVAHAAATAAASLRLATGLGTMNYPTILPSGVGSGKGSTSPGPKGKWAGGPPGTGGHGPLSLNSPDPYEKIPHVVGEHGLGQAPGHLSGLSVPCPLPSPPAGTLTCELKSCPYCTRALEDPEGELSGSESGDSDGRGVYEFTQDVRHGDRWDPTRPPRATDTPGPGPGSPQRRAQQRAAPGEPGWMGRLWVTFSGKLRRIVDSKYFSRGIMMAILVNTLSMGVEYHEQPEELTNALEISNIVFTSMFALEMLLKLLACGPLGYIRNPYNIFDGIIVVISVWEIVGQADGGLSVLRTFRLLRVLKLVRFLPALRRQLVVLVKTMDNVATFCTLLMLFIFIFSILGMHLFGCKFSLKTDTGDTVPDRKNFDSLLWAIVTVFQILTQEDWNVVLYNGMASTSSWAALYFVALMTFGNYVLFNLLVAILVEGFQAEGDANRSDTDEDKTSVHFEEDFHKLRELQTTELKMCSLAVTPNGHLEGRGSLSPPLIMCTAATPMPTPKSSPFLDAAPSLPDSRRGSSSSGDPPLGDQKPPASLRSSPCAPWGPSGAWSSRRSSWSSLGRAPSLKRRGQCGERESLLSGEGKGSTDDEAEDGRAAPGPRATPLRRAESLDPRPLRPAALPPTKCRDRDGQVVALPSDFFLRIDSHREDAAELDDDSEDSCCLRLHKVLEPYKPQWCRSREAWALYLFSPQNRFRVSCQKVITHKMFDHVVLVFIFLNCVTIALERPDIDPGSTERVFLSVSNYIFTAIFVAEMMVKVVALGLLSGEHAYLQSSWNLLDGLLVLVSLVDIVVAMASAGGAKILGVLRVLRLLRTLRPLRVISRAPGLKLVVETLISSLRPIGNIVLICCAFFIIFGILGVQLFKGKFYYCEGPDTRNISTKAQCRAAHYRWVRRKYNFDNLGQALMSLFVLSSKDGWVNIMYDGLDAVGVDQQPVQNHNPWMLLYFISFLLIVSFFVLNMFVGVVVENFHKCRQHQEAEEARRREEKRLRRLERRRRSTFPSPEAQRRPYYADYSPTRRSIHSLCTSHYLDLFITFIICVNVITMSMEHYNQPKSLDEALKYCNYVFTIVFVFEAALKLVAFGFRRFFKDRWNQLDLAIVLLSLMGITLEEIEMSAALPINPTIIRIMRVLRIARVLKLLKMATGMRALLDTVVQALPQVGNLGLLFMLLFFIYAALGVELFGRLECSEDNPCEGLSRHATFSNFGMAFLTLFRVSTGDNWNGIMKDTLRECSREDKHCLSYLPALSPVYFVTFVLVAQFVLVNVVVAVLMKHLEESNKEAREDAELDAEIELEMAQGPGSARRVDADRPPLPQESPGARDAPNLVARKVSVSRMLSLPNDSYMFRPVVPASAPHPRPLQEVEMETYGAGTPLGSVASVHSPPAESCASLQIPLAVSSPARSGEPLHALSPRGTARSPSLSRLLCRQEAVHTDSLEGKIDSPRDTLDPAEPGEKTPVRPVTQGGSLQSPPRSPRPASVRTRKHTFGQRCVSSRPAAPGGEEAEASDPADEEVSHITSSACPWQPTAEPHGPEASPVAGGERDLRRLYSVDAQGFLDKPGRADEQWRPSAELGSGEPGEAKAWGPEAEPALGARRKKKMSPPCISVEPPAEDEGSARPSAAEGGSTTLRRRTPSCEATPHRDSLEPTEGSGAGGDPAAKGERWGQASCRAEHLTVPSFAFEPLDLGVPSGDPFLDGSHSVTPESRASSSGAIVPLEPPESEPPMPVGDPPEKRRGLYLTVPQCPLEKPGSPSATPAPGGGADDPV

Molecule	IC50 [1]	pIC50 [2]	pIC50 [3]
CC(C)(NC(=O)[C@H]1C[C@H](S(=O)(=O)c2cccc(C(F)(F)F)c2)C1)c1ccc(F)cc1 [Compound 402, (1R,3R)-N-(2-(4-fluorophenyl)propan-2-yl)-3-(3-(trifluoromethyl)phenylsulfonyl)cyclobutane carboxamide]	1700 nM	6.24	6.19
COc1ccc(C(C)(C)NC(=O)[C@H]2C[C@H](S(=O)(=O)c3cccc(C(F)(F)F)c3)C2)cc1 [Compound 403, (1R,3R)-N-(2-(4-methoxyphenyl)propan-2-yl)-3-(3-(trifluoromethyl)phenylsulfonyl)cyclobutane carboxamide]	1460 nM	5.98	5.92
Cn1nc(C(F)(F)F)cc1NC(=O)[C@H]1C[C@H](S(=O)(=O)c2cccc(C(F)(F)F)c2)C1 [Compound 407, (1R,3R)-N-(1-methyl-3-(trifluoromethyl)-1H-pyrazol-5-yl)-3-(3-(trifluoromethyl)phenylsulfonyl) cyclobutanecarboxamide]	5630 nM	5.78	< 5.00
Cn1nc(C(F)(F)F)cc1NC(=O)[C@H]1C[C@@H](S(=O)(=O)c2cccc(C(F)(F)F)c2)C1 [Compound 408, (1S,3S)-N-(1-methyl-3-(trifluoromethyl)-1H-pyrazol-5-yl)-3-(3-(trifluoromethyl)phenylsulfonyl)cyclobutane carboxamide]	2490 nM	6.38	5.10
O=C(Nc1cc(C(F)(F)F)ccn1)[C@H]1C[C@H](S(=O)(=O)c2cccc(C(F)(F)F)c2)C1 [Compound 409, (1R,3R)-3-(3-(trifluoromethyl)phenylsulfonyl)-N-(4-(trifluoromethyl)pyridin-2-yl)cyclobutanecarboxamide]	1690 nM	5.44	5.58
O=C(Nc1ccc(C(F)(F)F)cn1)[C@H]1C[C@H](S(=O)(=O)c2cccc(C(F)(F)F)c2)C1 [Compound 415, (1R,3R)-3-(3-(trifluoromethyl)phenylsulfonyl)-N-(5-(trifluoromethyl)pyridin-2-yl)cyclobutanecarboxamide]	1760 nM	< 5.00	< 5.00
O=C(Nc1ccc(C(F)(F)F)cn1)[C@H]1C[C@@H](S(=O)(=O)c2cccc(C(F)(F)F)c2)C1 [Compound 416, (1S,3S)-3-(3-(trifluoromethyl)phenylsulfonyl)-N-(5-(trifluoromethyl)pyridin-2-yl)cyclobutanecarboxamide]	1650 nM	5.09	< 5.00
Cc1nc(C(F)(F)F)ccc1NC(=O)[C@H]1C[C@H](S(=O)(=O)c2cccc(C(F)(F)F)c2)C1 [Compound 417, (1R,3R)-N-(2-methyl-6-(trifluoromethyl)pyridin-3-yl)-3-(3-(trifluoromethyl)phenylsulfonyl)cyclobutane carboxamide]	5440 nM	5.33	< 5.00
Cc1nc(C(F)(F)F)ccc1NC(=O)[C@H]1C[C@@H](S(=O)(=O)c2cccc(C(F)(F)F)c2)C1 [Compound 418, (1S,3S)-N-(2-methyl-6-(trifluoromethyl)pyridin-3-yl)-3-(3-(trifluoromethyl)phenylsulfonyl)cyclobutane carboxamide]	3500 nM	5.54	< 5.00
O=C(Nc1cncc(Cl)c1)[C@H]1C[C@H](S(=O)(=O)c2cccc(C(F)(F)F)c2)C1 [Compound 419, (1R,3R)-N-(5-chloropyridin-3-yl)-3-(3-(trifluoromethyl)phenylsulfonyl)cyclobutane carboxamide]	3430 nM	< 5.00	< 5.00
Cc1noc(C)c1S(=O)(=O)NC[C@H]1C[C@H](S(=O)(=O)c2cccc(C(F)(F)F)c2)C1 [Compound 422, 3,5-dimethyl-N-(((1R,3R)-3-(3-(trifluoromethyl)phenylsulfonyl)cyclobutyl)methyl)isoxazole-4-sulfonamide]	2670 nM	5.86	5.65
O=S(=O)(NC[C@H]1C[C@H](S(=O)(=O)c2cccc(C(F)(F)F)c2)C1)c1ccc(C(F)(F)F)cc1 [Compound 424, 4-(trifluoromethyl)-N-(((1R,3R)-3-(3-(trifluoromethyl)phenylsulfonyl)cyclobutyl)methyl)benzenesulfonamide]	1460 nM	5.98	5.64
O=S(=O)(CCC(F)(F)F)NC[C@H]1C[C@H](S(=O)(=O)c2cccc(C(F)(F)F)c2)C1 [Compound 425, 3,3,3-trifluoro-N-(((1R,3R)-3-(3-(trifluoromethyl)phenylsulfonyl)cyclobutyl)methyl)propane-1-sulfonamide]	3760 nM	5.97	5.81
O=C(CN[C@H]1C[C@@H](S(=O)(=O)c2cccc(C(F)(F)F)c2)C1)NC1CCC(F)(F)CC1 [Compound 431, N-(4,4-difluorocyclohexyl)-2-((1S,3S)-3-(3-(trifluoromethyl)phenylsulfonyl)cyclobutylamino) acetamide]	1840 nM	6.62	6.04

The next molecules have a lower IC50 [1] than those just listed; values first:

IC50 [1]	pIC50 [2]	pIC50 [3]	Molecule
1280 nM	< 5.00	< 5.00	O=S(=O)(NC[C@H]1C[C@H](S(=O)(=O)c2cccc(C(F)(F)F)c2)C1)c1ccc(C(F)(F)F)cc1Cl [Compound 423, 2-chloro-4-(trifluoromethyl)-N-(((1R,3R)-3-(3-(trifluoromethyl)phenylsulfonyl)cyclobutyl)methyl)benzenesulfonamide]
1250 nM	6.15	5.69	O=C(Nc1cncc(Cl)c1)[C@H]1C[C@@H](S(=O)(=O)c2cccc(C(F)(F)F)c2)C1 [Compound 420, (1S,3S)-N-(5-chloropyridin-3-yl)-3-(3-(trifluoromethyl)phenylsuIfonyl)cyclobutane carboxamide]
1250 nM	6.17	5.87	N-tert-butyl-2-((1S,4S)-4-((3- (trifluoromethyl)phenylsulfonyl) methyl)cyclohexylamino)acetamide [Compound 144]
1240 nM	5.75	5.46	O=C(Nc1cc(C(F)(F)F)ccn1)[C@H]1C[C@@H](S(=O)(=O)c2cccc(C(F)(F)F)c2)C1 [Compound 410, (1S,3S)-3-(3-(trifluoromethyl)phenylsulfonyl)-N-(4-(trifluoromethyl)pyridin-2-yl)cyclobutanecarboxamide]
1020 nM	5.61	< 5.00	O=C(Nc1cccc(C(F)(F)F)n1)[C@H]1C[C@H](S(=O)(=O)c2cccc(C(F)(F)F)c2)C1 [Compound 411, (1R,3R)-3-(3-(trifluoromethyl)phenylsulfonyl)-N-(6-(trifluoromethyl)pyridin-2-yl)cyclobutanecarboxamide]
920 nM	6.06	5.42	O=S(=O)(NC[C@H]1C[C@H](S(=O)(=O)c2cccc(C(F)(F)F)c2)C1)c1cccc(C(F)(F)F)c1 [Compound 427, 3-(trifluoromethyl)-N-(((1R,3R)-3-(3-(trifluoromethyl)phenylsulfonyl)cyclobutyl)methyl)benzenesulfonamide]
810 nM	6.48	5.89	CC(C)S(=O)(=O)c1cc(C(F)(F)F)cnc1C(=O)N[C@H]1C[C@H](S(=O)(=O)c2cccc(C(F)(F)F)c2)C1 [Compound 432, 3-(isopropylsulfonyl)-5-(trifluoromethyl)-N-((1R,3R)-3-(3-(trifluoromethyl)phenylsulfonyl)cyclobutyl) picolinamide]
770 nM	5.08	< 5.00	O=C(N[C@H]1C[C@H](S(=O)(=O)c2cccc(C(F)(F)F)c2)C1)c1ccc(Cl)c(F)c1 [Compound 429, 4-chloro-3-fluoro-N-((1S,3S)-3-(3-(trifluoromethyl)phenylsulfonyl)cyclobutyl)benzamide]
590 nM	5.81	5.17	O=C(Nc1cccc(C(F)(F)F)n1)[C@H]1C[C@@H](S(=O)(=O)c2cccc(C(F)(F)F)c2)C1 [Compound 412, (1S,3S)-3-(3-(trifluoromethyl)phenylsulfonyl)-N-(6-(trifluoromethyl)pyridin-2-yl)cyclobutanecarboxamide]
210 nM	6.17	5.95	CC([C@H]1C[C@H](NC(=O)c2ccc(F)c(Cl)c2)C1)S(=O)(=O)c1cccc(C(F)(F)F)c1 (stereo partly drawn) [Compound 434, 3-chloro-4-fluoro-N-((1R,3R)-3-( (R)-1-(3-(trifluoromethyl)phenylsulfonyl)ethyl)cyclobutyl)benzamide]
